From patent publication US20130116291A1, “ASSOCIATION OF XANTHINE OXIDASE INHIBITORS AND STATINS AND USE THEREOF” (Menarini International Operations Luxembourg S.A., priority 2010, published 2013)

System: Wistar rats subjected to a cholesterol-rich (2%) diet
Assay: Hypocholesterolemic activity in rats on a cholesterol-rich diet (plasma total cholesterol)
Format: in vivo, rat
Conditions: for Diminution of plasma total cholesterol in rats: cholesterol-rich (2%) diet
Procedure: Plasma levels of total cholesterol were measured with a standard colorimetric enzymatic method. […] Plasma levels of total cholesterol were determined at one-week intervals. Blood was collected from a tail vein.

| SMILES | Diminution of plasma total cholesterol in rats (1 mg/Kg orally by gavage once per day for 4 weeks) | Diminution of plasma total cholesterol in rats (5 mg/Kg orally by gavage once per day for 4 weeks) | Diminution of plasma total cholesterol in rats ([…] orally by gavage once per day for 4 weeks) | Effect on cholesterol levels in the 4 weeks of observation (highest dose, 5 mg/kg per day, per os, Wistar rats, cholesterol-rich diet) | Reduction of the cholesterolemia values (in words) (doses of 5 and 10 mg/kg, starting from the first week of treatment) | Maximum reduction of the cholesterolemia values (highest dose (10 mg/kg, as calcium salt, per os daily), peak at 2 weeks, constant in the successive weeks) [%] |
| --- | --- | --- | --- | --- | --- | --- |
| Cc1nc(-c2ccc(OCC(C)C)c(C#N)c2)sc1C(=O)O [Febuxostat, febuxostat] | No diminution | No diminution | No diminution | did not significantly modify | – | – |
| CC(C)c1c(C(=O)Nc2ccccc2)c(-c2ccccc2)c(-c2ccc(F)cc2)n1CC[C@@H](O)C[C@@H](O)CC(=O)O [Atorvastatin, atorvastatin] | – | – | – | – | significant and dose-dependent reduction | 80 |
